# Source: patent US11833137B2, “Substituted chromenones, IRE1 inhibitors, and methods of using same” (The Wistar Institute, priority 2018, dated 2023)
# Columns and labels:
# [1] = system: XBP-1s expression, 5TGM1 cells; experiment: XBP-1s immunoblot in 5TGM1 multiple myeloma cells; type: cell-based, mouse
# Procedure: 5TGM1 mouse multiple myeloma cells, primary mouse B cells, primary mouse Eμ-TCL1 CLL cells, and human CLL cell lines (MEC2 and WaC3) were cultured at 37° C. in a 5% CO2 incubator using RPMI 1640 media (Gibco) supplemented with 10% heat-inactivated FBS, 2 mM L-glutamine, 100 U/mL penicillin G sodium, 1 mM sodium pyruvate, 0.1 mM non-essential amino acids, 100 μg/mL streptomycin sulfate and 0.1 mM β-mercaptoethanol (β-ME).
# Cells were lysed using RIPA buffer (10 mM Tris-HCl, pH 7.4, 150 mM NaCl, 1% NP-40, 0.5% sodium deoxycholate, 0.1% SDS, and 1 mM EDTA) supplemented with protease inhibitors (Roche). Protein concentrations were determined by BCA assays (Pierce).
# Samples were boiled in SDS-PAGE sample buffer (62.5 mM Tris-HCl, pH 6.8, 2% SDS, 10% glycerol, 0.1% bromophenol blue) with β-ME and analyzed by SDS-PAGE. Proteins were transferred to nitrocellulose membranes, blocked in 5% nonfat milk (wt/vol in PBS), and immunoblotted with indicated primary antibodies and appropriate horseradish peroxidase-conjugated secondary antibodies. Immunoblots were developed using Western Lighting Chemiluminescence Reagent (PerkinElmer).
# To develop inhibitors with improved potency to target the IRE1/XBP-1 pathway, tricyclic chromenone-based IRE1 RNase inhibitors with different amine group (R^1) were synthesized and compared: allyloxycarbonyl (alloc) in B-H09 (1), —H in C-B06 (2), and —CH3 in C-D06 (3) (FIG. 1A). 5TGM1 multiple myeloma cells were chosen to evaluate inhibitory effects of these inhibitors because they have constitutively activated IRE1/XBP-1 pathways.
# [2] = system: CD11b+/Ly6G+ granulocytic MDSCs; experiment: MDSC-mediated T cell suppression assay; type: in vivo, mouse; settings: OT-I splenocytes, OVA peptide
# Procedure: FIGS. 24A-24J illustrate the finding that targeting XBP-1s in CLL cells of MD4^+/−/Eμ-TCL1^+/+ mice leads to reduced production of sIgM, and decreased numbers and function of granulocytic MDSCs. […]. Gated CD11c−/CD11b+ populations were analyzed for Ly6C^intermediate/Ly6G+ granulocytic MDSCs and Ly6C+/Ly6G− monocytic MDSCs. (FIG. 24C) Percentages of CD11b+ myeloid cells in the blood of MD4^+/−/Eμ-TCL1^+/+ and XBP-1^KO/MD4^+/−/Eμ-TCL1^+/+ mice were plotted as mean±SEM. (FIG. 24D) Percentages of CD11b+/Ly6C^intermediate/Ly6G+ granulocytic MDSCs in the blood of MD4^+/−/Eμ-TCL1^+/+ and XBP-1^KO/MD4^+/−/Eμ-TCL1^+/+ mice were plotted as mean±SEM. […] Gated CD11b+/Ly6C^intermediate/Ly6G+ granulocytic MDSCs were analyzed for the expression of Arg-1. (FIG. 24F) Mean fluorescence intensity (MFI) of Arg-1 in gated CD11b+/Ly6C^intermediate/Ly6G+ granulocytic MDSCs from spleens of 5 MD4^+/−/Eμ-TCL1^+/+ and 5 XBP-1^KO/MD4^+/−/Eμ-TCL1^+/+ mice was plotted as mean±SEM. […] The ^3H-thymidine uptake was measured, and the percentages of proliferation were calculated by comparing to the positive control and plotted as mean±SEM. […] The percentage of CLL cells in PBMCs for each mouse was determined by flow cytofluorometry on day 6 and day 13, and compared with the CLL burden data of the mouse on day 0 (100%). […]
# 5TGM1 cells = experiment: Cell proliferation XTT assay, 5TGM1; type: cell-based, mouse; settings: 20 μM for a course of 3 days
# Procedure: 5TGM1 cells were suspended in phenol red-free RPMI media, seeded in 96-well cell culture plates, and treated with indicated IRE1 inhibitors (20 μM, unless indicated otherwise). At indicated time points, cells were spun down and cell proliferation was assessed by XTT assays (Roche) according to the manufacturer's instructions. Briefly, 50 μl XTT labeling reagent, 1 μl electron-coupling reagent, and 100 μl phenol red-free RPMI media were combined and applied to each well of the 96-well plates. Cells were incubated for 4 h in a CO2 incubator to allow for the yellow tetrazolium salt XTT to be cleaved by mitochondrial dehydrogenases of metabolically active cells to form the orange formazan dye, which can be quantified at 492 nm using a BioTek SYNERGY™ NEO2 Multimode Reader.
smiles,measurement,setting,value
"O=c1oc2c(C3OCCCO3)c(O)ccc2c2c1CNCC2 [Compound 4, 7-(1,3-dioxan-2-yl)-8-hydroxy-1,2,3,4-tetrahydro-5H-chromeno[3,4-c]pyridin-5-one]","suppression of XBP-1s expression, long term",[1]; 10 μM for a course of 3 days,continuously suppressed even after 3-day treatment
same,concentration that effectively blocks XBP-1s expression,[1]; 24 h,5 µM
same,suppression of XBP-1s expression,"[1]; 24 h, at 5 μM",more potent than 5
same,suppression of T cell proliferation by MDSCs from injected mice,[2],lost their immunosuppressive function
same,growth inhibition / cytotoxicity (XTT),5TGM1 cells,more potent than their respective aldehyde counterparts
